Source: patent publication US9458110B2, “Phenylpyrazole derivatives as potent ROCK1 and ROCK2 inhibitors” (BRISTOL-MYERS SQUIBB COMPANY, priority 2013, dated 2016)

Tests used:
ROCK1 = ROCK1 (Homo sapiens (Human), UniProt Q13464); test: ROCK assay (Caliper LABCHIP peptide phosphorylation), ROCK1; format: biochemical; details: 5 μM ATP, 1.5 μM peptide substrate;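 note: Read-out is separation of phosphorylated from unphosphorylated peptide, with kinase activity inhibition computed at every concentration of a dose-response series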
Sequence of ROCK1 (Q13464 whole entry, species assumed): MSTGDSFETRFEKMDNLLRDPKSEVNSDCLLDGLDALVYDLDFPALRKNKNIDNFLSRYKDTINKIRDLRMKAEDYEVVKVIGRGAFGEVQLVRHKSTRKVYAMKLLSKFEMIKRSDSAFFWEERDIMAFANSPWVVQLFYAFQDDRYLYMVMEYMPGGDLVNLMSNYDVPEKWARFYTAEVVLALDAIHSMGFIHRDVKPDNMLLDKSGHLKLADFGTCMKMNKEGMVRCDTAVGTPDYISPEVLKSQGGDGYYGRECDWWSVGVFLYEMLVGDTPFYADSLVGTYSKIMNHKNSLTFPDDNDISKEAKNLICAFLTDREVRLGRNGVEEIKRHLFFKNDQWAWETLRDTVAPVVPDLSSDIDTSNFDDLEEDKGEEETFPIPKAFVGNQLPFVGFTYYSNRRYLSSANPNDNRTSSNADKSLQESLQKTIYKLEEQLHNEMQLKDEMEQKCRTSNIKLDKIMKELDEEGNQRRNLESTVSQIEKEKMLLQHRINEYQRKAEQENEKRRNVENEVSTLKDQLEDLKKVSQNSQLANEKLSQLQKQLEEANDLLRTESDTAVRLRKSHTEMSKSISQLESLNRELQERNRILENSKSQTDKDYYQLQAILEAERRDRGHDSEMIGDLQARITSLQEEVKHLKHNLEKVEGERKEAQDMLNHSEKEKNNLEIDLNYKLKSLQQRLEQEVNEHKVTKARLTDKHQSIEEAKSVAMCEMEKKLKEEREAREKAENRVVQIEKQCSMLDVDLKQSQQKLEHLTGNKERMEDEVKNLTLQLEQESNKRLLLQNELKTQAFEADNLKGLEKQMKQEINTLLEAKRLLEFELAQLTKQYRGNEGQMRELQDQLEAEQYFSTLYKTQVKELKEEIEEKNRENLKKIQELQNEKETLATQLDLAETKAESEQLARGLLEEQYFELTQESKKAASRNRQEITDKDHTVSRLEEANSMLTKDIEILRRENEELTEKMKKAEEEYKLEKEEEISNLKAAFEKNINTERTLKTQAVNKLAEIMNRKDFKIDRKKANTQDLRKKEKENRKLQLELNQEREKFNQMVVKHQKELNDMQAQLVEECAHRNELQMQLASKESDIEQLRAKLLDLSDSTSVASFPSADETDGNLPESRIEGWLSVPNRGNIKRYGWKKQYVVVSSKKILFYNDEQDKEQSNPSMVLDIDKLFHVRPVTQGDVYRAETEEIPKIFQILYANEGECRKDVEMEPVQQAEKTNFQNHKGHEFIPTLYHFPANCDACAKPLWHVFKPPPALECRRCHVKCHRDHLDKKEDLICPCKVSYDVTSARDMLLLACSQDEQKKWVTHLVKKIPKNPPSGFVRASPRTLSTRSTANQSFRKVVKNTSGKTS

ROCK2 = ROCK2 (Homo sapiens (Human), UniProt O75116); test: ROCK assay (Caliper LABCHIP peptide phosphorylation), ROCK2; format: biochemical; details: 5 μM ATP, 1.5 μM peptide substrate;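 note: reaction stopped with EDTA, then phosphorylated and unphosphorylated peptide resolved by microfluidic electrophoresis, kinase inhibition computed at each compound concentration in dose-response series, DMSO under 2%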
Sequence of ROCK2 (O75116 whole entry, species assumed): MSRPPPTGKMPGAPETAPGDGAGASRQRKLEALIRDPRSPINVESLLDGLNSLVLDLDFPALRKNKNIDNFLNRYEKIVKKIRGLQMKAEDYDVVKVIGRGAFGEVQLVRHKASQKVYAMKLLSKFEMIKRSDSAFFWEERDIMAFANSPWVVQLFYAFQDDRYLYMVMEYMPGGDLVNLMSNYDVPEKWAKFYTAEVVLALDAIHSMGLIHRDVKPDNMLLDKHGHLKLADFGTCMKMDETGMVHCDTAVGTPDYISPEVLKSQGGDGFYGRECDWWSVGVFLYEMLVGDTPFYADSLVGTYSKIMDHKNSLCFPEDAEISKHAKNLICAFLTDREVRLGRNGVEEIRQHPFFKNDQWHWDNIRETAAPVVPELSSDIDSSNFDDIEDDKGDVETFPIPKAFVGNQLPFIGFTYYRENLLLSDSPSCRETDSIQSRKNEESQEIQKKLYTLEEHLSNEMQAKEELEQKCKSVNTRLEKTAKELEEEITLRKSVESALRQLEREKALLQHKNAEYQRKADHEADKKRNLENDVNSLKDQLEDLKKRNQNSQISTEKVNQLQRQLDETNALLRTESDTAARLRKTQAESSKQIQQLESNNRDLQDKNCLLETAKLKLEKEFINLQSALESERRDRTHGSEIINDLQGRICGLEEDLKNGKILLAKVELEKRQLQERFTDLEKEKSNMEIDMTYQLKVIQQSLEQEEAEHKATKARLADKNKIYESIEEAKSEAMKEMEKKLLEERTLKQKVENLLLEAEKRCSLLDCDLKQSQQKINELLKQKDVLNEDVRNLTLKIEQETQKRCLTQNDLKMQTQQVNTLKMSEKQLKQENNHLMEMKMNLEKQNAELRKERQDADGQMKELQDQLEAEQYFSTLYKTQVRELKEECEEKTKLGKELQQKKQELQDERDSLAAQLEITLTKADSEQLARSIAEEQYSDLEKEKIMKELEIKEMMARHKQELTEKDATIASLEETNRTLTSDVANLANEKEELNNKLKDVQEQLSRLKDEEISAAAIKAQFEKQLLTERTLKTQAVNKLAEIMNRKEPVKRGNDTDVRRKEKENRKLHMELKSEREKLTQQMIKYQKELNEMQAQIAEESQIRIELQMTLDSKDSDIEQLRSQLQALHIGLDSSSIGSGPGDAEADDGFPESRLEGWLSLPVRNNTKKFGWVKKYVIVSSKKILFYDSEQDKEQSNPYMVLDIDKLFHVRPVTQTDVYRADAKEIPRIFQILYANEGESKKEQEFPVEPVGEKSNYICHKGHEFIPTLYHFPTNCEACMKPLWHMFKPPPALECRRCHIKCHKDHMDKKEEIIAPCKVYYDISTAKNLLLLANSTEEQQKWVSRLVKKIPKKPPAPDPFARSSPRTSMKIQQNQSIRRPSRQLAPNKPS

Structure (SMILES) | IC50 (ROCK1) | IC50 (ROCK2)
COc1ccc(F)c(C(C)NC(=O)c2ccc(-c3c[nH]nc3C)cc2OC)c1 (centres unmarked) [Example 213, N-[1-(2-fluoro-5-methoxyphenyl)ethyl]-2-methoxy-4-(3-methyl-1H-pyrazol-4-yl)benzamide] | 15.6 nM | 5.16 nM
COc1cc(C(=O)NC(C)c2c(F)cccc2Cl)ccc1-c1cn[nH]c1 (centres unmarked) [Example 221, N-[1-(2-chloro-6-fluorophenyl)ethyl]-3-methoxy-4-(1H-pyrazol-4-yl)benzamide] | 16.7 nM | 3.43 nM
COc1cc(C(=O)NC2(c3ccccc3)CCC2)ccc1-c1cn[nH]c1 [Example 222, 3-methoxy-N-(1-phenyl-cyclobutyl)-4-(1H-pyrazol-4-yl)benzamide] | 146 nM | 26 nM
COc1cc(-c2cn[nH]c2)ccc1C(=O)NC(C)c1c(F)cccc1Cl (centres unmarked) [Example 223, N-[1-(2-chloro-6-fluorophenyl)ethyl]-2-methoxy-4-(1H-pyrazol-4-yl)benzamide] | 59.6 nM | 14.7 nM
COc1cc(C(=O)N[C@@H](c2ccccc2)[C@H](O)CO)ccc1-c1cn[nH]c1 [Example 224, N-[(1S,2S)-2,3-dihydroxy-1-phenylpropyl]-3-methoxy-4-(1H-pyrazol-4-yl)benzamide] | 8.55 nM | 1.98 nM
COc1cc(-c2cn[nH]c2)ccc1C(=O)NC(C)c1c(F)cccc1F (centres unmarked) [Example 226, N-[1-(2,6-difluorophenyl)ethyl]-2-methoxy-4-(1H-pyrazol-4-yl)benzamide] | 26.5 nM | 5.13 nM
COc1cc(-c2cn[nH]c2)ccc1C(=O)NC(C)c1c(F)cccc1F (centres unmarked) [Example 227, N-[1-(2,6-difluorophenyl)ethyl]-2-methoxy-4-(1H-pyrazol-4-yl)benzamide] | > 2000 nM | 1200 nM
COc1ccc(F)c(C(C)NC(=O)c2ccc(-c3cn[nH]c3)cc2OC)c1 (centres unmarked) [Example 228, N-[1-(2-fluoro-5-methoxyphenyl)ethyl]-2-methoxy-4-(1H-pyrazol-4-yl)benzamide] | 12.5 nM | 3.05 nM
COc1ccc(F)c(C(C)NC(=O)c2ccc(-c3cn[nH]c3)cc2OC)c1 (centres unmarked) [Example 229, N-[1-(2-fluoro-5-methoxyphenyl)ethyl]-2-methoxy-4-(1H-pyrazol-4-yl)benzamide] | 182 nM | 76.3 nM
COc1cc(C(=O)NCc2cccc(S(N)(=O)=O)c2)ccc1-c1cn[nH]c1 [Example 231, 3-methoxy-4-(1H-pyrazol-4-yl)-N-[(3-sulfamoyl-phenyl)methyl] benzamide] | 15.2 nM | 0.99 nM
COc1cc(C(=O)NCc2cccc(C(=O)NCC(C)(C)O)c2)ccc1-c1cn[nH]c1 [Example 234, N-({3-[(2-hydroxy-2-methylpropyl)carbamoyl]phenyl}methyl)-3-methoxy-4-(1H-pyrazol-4-yl)benzamide] | 3.24 nM | 0.46 nM
COc1cc(C(=O)NCc2cccc(C(=O)N(C)C)c2)ccc1-c1cn[nH]c1 [Example 235, N-{[3-(dimethyl-carbamoyl)phenyl]methyl}-3-methoxy-4-(1H-pyrazol-4-yl)benzamide] | 499 nM | 93.7 nM
COc1cc(C(=O)NCc2cccc(C(=O)NCC3CC3)c2)ccc1-c1cn[nH]c1 [Example 236, N-({3-[(cyclopropyl-methyl)carbamoyl]phenyl}methyl)-3-methoxy-4-(1H-pyrazol-4-yl)benzamide] | 1.79 nM | 0.37 nM
CCNC(=O)c1cccc(CNC(=O)c2ccc(-c3cn[nH]c3)c(OC)c2)c1 [Example 237, N-{[3-(ethylcarbamoyl)phenyl]methyl}-3-methoxy-4-(1H-pyrazol-4-yl)benzamide] | 2.39 nM | 0.4 nM
COc1cc(C(=O)NCc2cccc(C(=O)NC3CC3)c2)ccc1-c1cn[nH]c1 [Example 238, N-{[3-(cyclopropyl-carbamoyl)phenyl]methyl}-3-methoxy-4-(1H-pyrazol-4-yl)benzamide] | 2.44 nM | 0.32 nM
Cc1cc(C(=O)NCc2cccc(C(=O)O)c2)ccc1-c1cn[nH]c1 [Example 239, 3-({[3-methyl-4-(1H-pyrazol-4-yl)phenyl] formamido}methyl) benzoic acid] | 61.4 nM | 11.5 nM
CCNC(=O)c1cccc(CNC(=O)c2ccc(-c3cn[nH]c3)c(C)c2)c1 [Example 240, N-{[3-(ethylcarbamoyl)phenyl]methyl}-3-methyl-4-(1H-pyrazol-4-yl)benzamide] | 11.8 nM | 2.61 nM

Continued, values first:

IC50 (ROCK1) | IC50 (ROCK2) | Structure (SMILES)
131 nM | 32.3 nM | COc1cccc(CNC(=O)c2ccc(-c3cn[nH]c3)cc2N)c1 [Example 214, 2-amino-N-[(3-methoxyphenyl)methyl]-4-(1H-pyrazol-4-yl)benzamide]
64.2 nM | 23.4 nM | COc1cc(-c2cn[nH]c2)ccc1C(=O)N[C@H](CO)[C@H](O)c1ccccc1 [Example 215, N-[(1R,2R)-1,3-dihydroxy-1-phenylpropan-2-yl]-2-methoxy-4-(1H-pyrazol-4-yl)benzamide]
51.5 nM | 11 nM | COc1cc(C(=O)N[C@@H](Cc2ccccc2)[C@H](O)CO)ccc1-c1cn[nH]c1 [Example 216, N-[(2S,3S)-3,4-dihydroxy-1-phenylbutan-2-yl]-3-methoxy-4-(1H-pyrazol-4-yl)benzamide]
15.4 nM | 12.9 nM | COc1cc(-c2cn[nH]c2)ccc1C(=O)N[C@@H](Cc1ccccc1)[C@H](O)CO [Example 217, N-[(2S,3S)-3,4-dihydroxy-1-phenylbutan-2-yl]-2-methoxy-4-(1H-pyrazol-4-yl)benzamide]
24.7 nM | 6.52 nM | COc1cc(-c2cn[nH]c2)ccc1C(=O)NC(c1ccccc1F)C(C)(C)O (centres unmarked) [Example 218, N-[1-(2-fluorophenyl)-2-hydroxy-2-methylpropyl]-2-methoxy-4-(1H-pyrazol-4-yl)benzamide]
585 nM | 201 nM | COc1cc(-c2cn[nH]c2)ccc1C(=O)NC(c1ccccc1F)C(C)(C)O (centres unmarked) [Example 219, N-[1-(2-fluorophenyl)-2-hydroxy-2-methylpropyl]-2-methoxy-4-(1H-pyrazol-4-yl)benzamide]
321 nM | 201 nM | Nc1cc(-c2cn[nH]c2)ccc1C(=O)NCCCc1ccccc1 [Example 220, 2-amino-N-(3-phenylpropyl)-4-(1H-pyrazol-4-yl)benzamide]
7.59 nM | 1.09 nM | COc1cc(-c2cn[nH]c2)ccc1C(=O)N[C@@H](c1ccccc1)[C@H](O)CO [Example 225, N-[(1S,2S)-2,3-dihydroxy-1-phenylpropyl]-2-methoxy-4-(1H-pyrazol-4-yl)benzamide]
11.2 nM | 1.86 nM | COc1cc(-c2cn[nH]c2)ccc1C(=O)NCc1cccc(S(N)(=O)=O)c1 [Example 230, 2-methoxy-4-(1H-pyrazol-4-yl)-N-[(3-sulfamoyl-phenyl)methyl] benzamide]
1.04 nM | 0.36 nM | COc1cc(C(=O)NC(CN)Cc2ccccc2)ccc1-c1cn[nH]c1 (centres unmarked) [Example 232, N-(1-amino-3-phenylpropan-2-yl)-3-methoxy-4-(1H-pyrazol-4-yl)benzamide]
4.6 nM | 2.53 nM | COc1cc(-c2cn[nH]c2)ccc1C(=O)NC(CN)Cc1ccccc1 (centres unmarked) [Example 233, N-(1-amino-3-phenylpropan-2-yl)-2-methoxy-4-(1H-pyrazol-4-yl)benzamide]
